Here are results for two molecules from patent US20040258772A1, “Methods of treating angiogenesis, tumor growth, and metastasis” (priority 2002, published 2004).

The test system of series [1] is A549 cells transformed to overexpress HO-1. The series can be described thus: A549 HO-1 overexpressing tumor model. Type of series: in vivo, mice. The following applies: 50 μmol/kg s.c., data not shown. The procedure: The third model was also an A549 model, wherein mice were injected with A549 cells transformed to overexpress HO-1 (HO-1 clones A5 and L1). After the six-week period, the size and volume of tumors that developed in the mice were evaluated. […] Using Western blot analysis, the relative decrease in volume was determined to correlate with a relative decrease in expression of cyclin D1, a protein involved in the regulation of cell growth (data not shown).

The subject of series [2] is Human adenocarcinoma cells (A549). The series is classed as cell-based. The following applies: 250 ppm CO. The source says: (§1) A human adenocarcinoma cell line designated A549, a murine mesothelioma cell line designated AC29, and a human colon cancer cell line designated HCT were utilized for the studies described herein.
(§2) Cell cultures and mice were exposed to CO at a concentration of 250 ppm. Briefly, 1% CO in air was mixed with air (21% oxygen) in a stainless steel mixing cylinder and then directed into a 3.70 ft^3 glass exposure chamber at a flow rate of 12 L/min. A CO analyzer (Interscan, Chatsworth, Calif.) was used to measure CO levels continuously in the chamber. CO concentrations were maintained at 250 ppm at all times. Cell cultures and mice were placed in the exposure chamber as required.
(§3) For [^3H] thymidine incorporation studies, cells were serum-starved overnight and then stimulated with 20% serum containing 5 mCi/ml [^3H] thymidine (New England Nuclear, Boston, Mass.). [^3H] thymidine incorporation was measured by scintillation spectroscopy. CO inhibits the growth of cancer cells in vitro Human and mouse cancer cell lines were used to investigate the effect of CO on growth rates of the cells in culture. Human adenocarcinoma cells (A549), mouse mesothelioma cells (AC29), and A549 and AC29 cells transformed with the heme oxygenase-1 (HO-1) gene (which causes the cells to overexpress HO-1) were exposed to low levels of CO (250 ppm) in culture. Four-day growth curves were generated.

The test system of series [3] is mouse mesothelioma cells (AC29). The series can be described thus: Growth curves of cancer cells in culture exposed to CO. Type of series: cell-based.
Description: as §1, §2
as §3, with “Four-day growth curves were generated.” left out

Series [4] concerns AC29 cells. The series can be described thus: Mesothelioma (AC29) survival model, cells injected intraperitoneally. Type of series: in vivo, CBA mice.
Description: (§4) For human tumor studies, female SCID mice (weighing 20 to 30 g) were purchased from Taconic (White Plains, N.Y.) and allowed to acclimate for 1 week prior to experimentation. For murine tumor and matrigel studies, male CBA and C57B1/6 mice (weighing 25 to 30 g) were purchased form Jackson Labs (Bar Harbor, Me.) and also were allowed to acclimate for 1 week prior to experimentation.
as §2
The first was a mesothelioma (AC29) model, wherein CBA mice were injected with 1×10^6 AC29 cells intraperitoneally and monitored for survival when continuously exposed to air or to an atmosphere containing 250 ppm CO for a period of six weeks. […] The survival rate of the CO-exposed mice was increased by greater than 90% as compared to air-exposed mice. The arrow shown in FIG. 3 denotes a time point at which half of the CO-exposed mice were removed from the CO chamber. Half of the mice were removed at that time to determine whether the effects of CO on mouse survival require continuous exposure to CO. A significant number of mice (50%, p<0.02) that were removed from the CO-containing atmosphere remained alive at the end of the experiment, whereas all air treated mice died by day 36. The number of mice in each group was 12 to 20 animals.
In another experiment, it was shown that CO-exposed mice survived for greater than 65 days (data not shown).

Series [5] concerns A549 cells. In words: Adenocarcinoma (A549) subcutaneous tumor model. The series is classed as in vivo, SCID mice.
Description: as §4, §2
The second model was an adenocarcinoma (A549) model, wherein SCID mice were injected with 1×10^6 A549 cells subcutaneously. These animals were continuously exposed to air or to 250 ppm of CO for a period of six weeks. After the six-week period, the volume of the tumors that developed in the mice was evaluated.

For series [6], the system named is A549 cells. The series can be described thus: [3H] thymidine uptake, cGMP dependence of CO-induced growth arrest. Type of series: cell-based, human. The following applies: CO 250 ppm 3 hours before and 24 hours after serum; compared to CO alone. The procedure:
as §3
The cellular mechanisms by which CO causes inhibition were also investigated. To investigate whether CO-induced growth arrest is CGMP dependant, A549 cells were exposed to air, CO, CO+ODQ, or CO+Rp-8-BR. […] The ability of the cells to proliferate was determined by measuring the uptake of [3H] thymidine by the cells (FIG. 5). Cells were exposed to CO (250 ppm) for 3 hours prior to the addition of serum and [3H] thymidine (5 mCi/ml). After the addition of serum and [3H] thymidine, cells were maintained in CO for 24 hours. Cells were then rinsed, fixed and examined by scintillation spectroscopy.

In series [7] the test system is HTC cells. The series can be described thus: [3H] thymidine uptake in wild-type and p21-deficient colon cancer cells. Type of series: cell-based, human. The following applies: p21-/- HTC cells versus wild type. The procedure:
as §3
Wild-type (Wt) HTC cells and HTC cells deficient in p21 (p21−/−), a gene known to control cell growth, were exposed to air or CO to determine whether p21 is involved in CO-induced growth arrest (FIG. 6). As indicated by [^3H] thymidine uptake, CO-induced growth arrest appears less marked in HTC cells that are deficient in p21.

Series [8] concerns p21, p27, PCNA, Cdc25b, cyclin D1 in A549 cells. In words: Immunoblot of growth/cell cycle proteins. Type of series: cell-based, human. As for the experimental part:
Immunoblotting was performed to investigate protein expression by standard methods known in the art. Antibodies were purchased from Santa Cruz, StressGen and Cell Signaling.
To investigate CO-induced changes in the expression of various growth/cell cycle proteins in cancer cells, A549 cells were exposed for 24 hours to air or CO (250 ppm). After this period of exposure, cell lysates were collected from the cells and changes in protein expression in the lysates were examined by immunoblot.
On the technique in general: In western blotting, separated proteins are transferred to a membrane and probed.

Series [9] relates to VEGF production by A549 cells. In words: VEGF production by ELISA. The series is classed as cell-based, human. The following applies: CO plus air for 24 to 48 hours vs air alone. As for the experimental part:
ELISA kits for VEGF levels were purchased from R&D Systems and used according to the manufacturer's directions.
Whether CO inhibits production of VEGF, a growth factor that contributes to angiogenesis by promoting blood vessel growth, was investigated. A549 cells were exposed to air or CO plus air for 24 to 48 hours in vitro, and VEGF production by A549 cells was detected using an enzyme-linked immunosorbent assay (ELISA).
(An ELISA detects its analyte on a solid surface through an enzyme-linked reagent.)

Series [10] has as its system angiogenesis. In words: Matrigel angiogenesis assay, FGF/heparin Matrigel implanted under the skin. Type of series: in vivo, C57/B16 mice.
Description: as §4, §2
The effect of CO (250 ppm) on angiogenesis was investigated using a Matri gel […] angiogenesis assay. A solubilized basement membrane matrix (Matrigel™) containing 20 ng/ml growth factor (FGF) and heparin was implanted under the skin of C57/B16 mice. The mice were then exposed to air or CO in air for two weeks. After the two-week period, the Matrigel™ was removed and examined.
In a separate experiment, Matrigel™ deposits containing 20 ng/ml growth factor (FGF) and heparin were implanted under the skin of C57/B16 mice, and the mice were exposed to air or CO (250 ppm) in air for 21 days. Photomicrographs of hematoxylin- and eosin-stained paraffin sections from the resected subcutaneous FGF-Matrigel deposits were prepared. Prominent angiogenesis was evident in deposits from air-exposed mice, as was a front of infiltrating vascular cells organizing into blood filled micro-capillaries (data not shown).

Structures are written as SMILES. “Also recorded” adds a separate entry of the source.

For `C=Cc1c2[n-]c(c1C)/C=c1\[n-]/c(c(C)c1C=C)=C\c1[n-]c(c(CCC(=O)O)c1C)/C=c1\[n-]c(c(C)c1CCC(=O)O)=C2.[Sn+4]` [tin protoporphyrin], the “effect on the inhibition of tumor growth by HO-1 overexpression” value in series [1] is “reversible”.

Consider `[C-]#[O+]` [CO, carbon monoxide], for which the “toxicity as cause of reduced cell numbers” value in series [2] (A549 and AC29 cultures, confluency eventually achieved) was “not due to toxicity”. Moreover, the “reduction in cell number” value in [2] (by three days, compared to controls) is greater than 40%; in series [3] (250 ppm CO, by three days, compared to controls) it was greater than 40%. For the same molecule, the “proliferation after removal from CO-containing atmosphere” value in series [3] (cultures removed from CO at day 5) was “proliferate at a normal rate”. For the same molecule, the “proliferation of AC29 cells” value in series [3] (six-day growth curve, CO vs air) was “inhibits the proliferation”. Moreover, the “increase of survival rate” value in [4] (250 ppm CO, compared to air-exposed mice) is on record as “greater than 90%”. The values for the survival entry in [4] (CO treatment delayed until one week after injection of mesothelioma cells) and in [4] (continuous 250 ppm CO for six weeks vs air) were “prolonged the lives; also recorded: prolongs survival” and “lived longer; also recorded: prolongs survival”, respectively. In addition, in series [4] (another experiment, data not shown), the survival time entry is “greater than 65 days”. In [4] (half of CO-exposed mice removed from chamber, p<0.02, all air treated mice died by day 36), the “mice removed from CO-containing atmosphere alive at end of experiment” value is on record as 50%. The tumor volume entry in series [5] (CO plus air vs air alone) is given as “reduced”. The “reduction of tumor volume” value in series [5] (continuous 250 ppm CO for six weeks, compared to air-exposed mice) was “greater than 50%”. Also, the “uptake of [3H] thymidine (proliferation)” value in [6] was “growth arrest”. For the same molecule, in [7], the “CO-induced growth arrest ([3H] thymidine uptake)” value is “less marked”. Moreover, the “expression of p21, p27, PCNA, Cdc25b and cyclin D1” value in series [8] (250 ppm CO for 24 hours) was “causes changes in expression”. Further, the “expression of p21” value in [8] (CO for 4, 8 and 24 hours) is listed as “causes changes in expression”. Further, the VEGF production result in series [9] is “substantially less VEGF; also recorded: inhibits”. Further, the “cellularity and blood in Matrigel deposits” value in series [10] (250 ppm CO in air for 21 days) was “paucity of cellularity and blood”. Besides, the “angiogenesis in Matrigel deposits” value in [10] (250 ppm CO in air for 21 days, H&E sections) is reported as “No angiogenesis was evident”. For the same molecule, the “angiogenesis in Matrigel” value in series [10] (250 ppm CO in air for two weeks, data not shown) is given as “no new blood vessel growth”.
